Test results published in patent US9801922B2, “Compositions and methods of treating cancer” (UNIVERSITY OF IOWA RESEARCH FOUNDATION, priority 2011, dated 2017).
Where two headings read alike, the source gives them in different places.

Columns and labels:
[1] = system: MB231 cells; conditions: 24 hrs
Experimental: MB231 cells were treated with 0.5 μM, 1.0 μM, and 2.0 μM azido-decylTPP and bis-TPP and incubated for 24 hrs. DMSO was added to control dishes to a final concentration of 0.1%. Following a 24 hr. incubation period, cells were plated at densities of 200, 400, 600, 800, and 2,000 cells per dish and incubated for 2 weeks. After incubation, cells were stained with Coomassie blue and counted under a light microscope. Survival fraction was calculated by dividing the number of colonies counted following treatment by the product of the number of cells plated and plating efficiency.

[2] = system: Hec50co human endometrial cancer cells; conditions: 2 uM, 24 hrs
Experimental: Hec50co human endometrial cancer cells were treated with 0.5 μM, 1.0 and 2.0 μM azido-decylTPP and bis-TPP and incubated for 24 hrs. DMSO was added to control dishes to a final concentration of 0.1%. Following a 24 hr. incubation period, cells were plated at densities of 200, 400, 600, 800, 2,000, 5,000, and 10,000 cells per dish and incubated for 2 weeks. After incubation, cells were stained with Coomassie blue and counted under a light microscope. Survival fraction was calculated by dividing the number of colonies counted following treatment by the product of the number of cells plated and plating efficiency. Error bars represent uncertainties of N=2 experiments.

[3] = system: A375 melanoma cells; experiment: MTT survival fraction analysis, A375; assay type: cell-based

Row | Molecule | survival fraction ([1]; 0.5 uM) [%] | survival fraction ([1]; 2 uM) [%] | survival fraction [2] [%] | cytotoxicity in the absence of BSO, in words [3] | survival fraction ([3]; in the presence of BSO, 2 μM) [%] | cytotoxicity in the presence of BSO, in words ([3]; up to 2 μM)
1 | [N-]=[N+]=NCCCCCCCCCC[P+](c1ccccc1)(c1ccccc1)c1ccccc1 [azido-DTPP, (10-azidodecyl)triphenylphosphonium] | 55 | 10 | 24 | – | – | –
2 | CCCCC[P+](c1ccccc1)(c1ccccc1)c1ccccc1 [pentyl-TPP] | – | – | – | no effect | 70 | little cytotoxicity
3 | decane-1,10-diylbis(triphenylphosphonium) [bis-DTPP] | 90 | 82 | 66 | – | – | –
